Measurements from US11434258B2, “Compounds (immunorhelins)” (ISR IMMUNE SYSTEM REGULATION HOLDING AB (PUBL), priority 2017, dated 2022).
Counter-ions that a name gives are not always drawn. Like-named read-outs stand apart in the source and are kept apart here. Non-standard residues stand in square brackets, D forms with d. Residues, ends and D or L forms follow the SMILES beside them. dHis(τ-Bn) = N[C@H](Cc1cn(Cc2ccccc2)cn1)C(=O)O; pGlu = O=C1CC[C@@H](C(=O)O)N1

Columns and labels:
[1] = Stability in aqueous media (PBS pH 7.4); assay type: physicochemical; design: unit not given here; settings: phosphate buffer solution (PBS); PBS pH 7.4, 37° C., samples at T=0, 4, 24, 96 h; read-out: Stability grading (t1/2)
Source text: LC/MS data was collected for compound identity.

[2] = biological target: T1, GnRHR (Homo sapiens, UniProt P30968); assay: Calcium assay in CHO-K1 cells (Genscript), FLIPR; assay type: cell-based; settings: CHO-K1/GnRHR/Ga15 cells, relative to agonist control, read-out: GNRHR Stimulation at 1 μM
T1 construct: host or cells: CHO-K1 (CHO-K1/GnRHR/Ga15)
T1 sequence (P30968 1-328): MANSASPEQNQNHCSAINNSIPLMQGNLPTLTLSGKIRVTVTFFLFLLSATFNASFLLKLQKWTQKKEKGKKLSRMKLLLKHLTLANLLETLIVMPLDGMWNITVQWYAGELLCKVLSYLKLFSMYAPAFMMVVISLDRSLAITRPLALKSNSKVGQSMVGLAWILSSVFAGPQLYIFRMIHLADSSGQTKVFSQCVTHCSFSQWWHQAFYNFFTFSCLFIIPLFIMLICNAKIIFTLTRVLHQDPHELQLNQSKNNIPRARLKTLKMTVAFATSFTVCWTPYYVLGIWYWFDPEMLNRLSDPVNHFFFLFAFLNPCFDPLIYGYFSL
Description: Test article sample solutions were dissolved in HBSS buffer (with 20 mM HEPES buffer, pH 7.4) to form the 5× working solution. FLIPR® Calcium 4 assay kit from Molecular devices (R8141) was used as required. In brief, CHO-K1 cells expressing GnRHR (CHO-K1/GnRHR/Ga15, Genscript accession NM_000406) were respectively cultured in the 10-cm dishes and maintained at 37° C./5% CO2. CHO-K1 cells expressing GNRHR were respectively seeded in a 384-well black-wall, clear-bottom plate at a density of 15,000 cells per well in 20 μl of growth medium about 18 hours prior to the day of experiment and maintained at 37° C./5% CO2. Then, 20 μl of dye loading solution was added into the wells and the plates were subsequently placed into a 37° C. incubator for 60 minutes, followed by a 15 minutes' incubation at room temperature. At last, 10 μl of compounds or control agonist were added into respective wells of the assay plate during reading in FLIPR. The plate containing 5× compound and control agonist solution was placed in FLIPR. Solutions were added into the cell plate automatically at the 20 seconds and the fluorescence signal was monitored for an additional 100 seconds (21 sec to 120 sec.). Data were recorded by ScreenWorks (version 3.1) as FMD files with FLIPR and stored on the GenScript computer network for off-line analysis. Data acquisition and analyses was performed using ScreenWorks (version 3.1) program and exported to Excel. The average value of the first 20 seconds' reading was calculated as the baseline and the relative fluorescent units (ΔRFU) intensity values were calculated by subtracting the average value of baseline from the maximum fluorescent units (21 s to 120 s).
The % Stimulation was calculated with the following equation: % Stimulation=(ΔRFUCompound−ΔRFUBackground)/(ΔRFUAgonist control−ΔRFUBackground)×100
Dose response curves were fitted with four-parameter-logistic-equation by the software GraphPad Prism 6.
Equation: four parameter logistic equation. Y=Bottom+(Top-Bottom)/(1+10^((Log EC50−X)×Hillslope))
X is the logarithm of concentration. Y is the response.

[3] = Solubility in PBS (LC/UV AUC trend); settings: PBS pH 7.4, 0.2 mg/ml; rating 1 (good) to 5 (poor)
[4] = system: T cells; assay: Immune stimulation assay: MHC class I expression on T cells (PBMCs, flow cytometry); assay type: cell-based, human; settings: PBMCs from a healthy donor, with IL-2, 72 hours
Description: FIG. 1: Expression of MHC class I after stimulation of T cells with increasing concentrations of GnRH II. PBMCs from a healthy donor was stimulated with GnRH II and IL-2 for 72 hours. Data points represent mean fluorescent intensity of MCH class I expression on CD4^+ T cells (blue triangles) or CD8^+ T cells (black squares) measured with flow cytometry.
(black). […] Data points represent mean fluorescent intensity of MCH class I expression on CD4^+ T cells (A) or CD8^+ T cells (B) measured with flow cytometry.
Human peripheral blood mononuclear cells (PBMCs) were purified from healthy donors with Ficoll-Hypaque density centrifugation. Cells were cultured in RPMI-1640 medium (Invitrogen) supplemented with 10% fetal bovine serum, 100 […], 100 μg/mL streptomycin and IL-2 (100 U/mL) for 72 hours in 37° C., 5% CO2.

[5] = pH 7.4

SMILES	half-life at 0.2 mg/ml [1]	activation at 1 µM [2]	Solubility grading [3]	MHC class I expression on T cells [4]	Solubility grading [5]
CCNC(=O)[C@@H]1CCCN1C(=O)[C@H](CCCNC(=N)N)NC(=O)[C@H](Cc1c[nH]c2ccccc12)NC(=O)[C@@H](CC(C)C)NC(=O)[C@H](Cc1c[nH]cn1)NC(=O)[C@H](CO)NC(=O)[C@H](Cc1c[nH]c2ccccc12)NC(=O)[C@H](Cc1c[nH]cn1)NC(=O)[C@@H]1CCC(=O)N1 [Compound 47, pGlu-His-Trp-Ser-His-D-Leu-Trp-Arg-Pro-NHEt] ([pGlu]HWSH[dL]WRP-NHEt)	> 96	119%	1		
CCNC(=O)[C@@H]1CCCN1C(=O)[C@H](Cc1ccc(O)cc1)NC(=O)[C@H](Cc1c[nH]c2ccccc12)NC(=O)[C@@H](CC(C)C)NC(=O)[C@H](Cc1c[nH]cn1)NC(=O)[C@H](CO)NC(=O)[C@H](Cc1c[nH]c2ccccc12)NC(=O)[C@H](Cc1c[nH]cn1)NC(=O)[C@@H]1CCC(=O)N1 [Compound 50, pGlu-His-Trp-Ser-His-D-Leu-Trp-Tyr-Pro-NHEt] ([pGlu]HWSH[dL]WYP-NHEt)	> 96	105%	1		
CCNC(=O)[C@@H]1CCCN1C(=O)[C@H](CCCNC(=N)N)NC(=O)[C@H](CC(C)C)NC(=O)[C@@H](Cc1cn(Cc2ccccc2)cn1)NC(=O)[C@H](Cc1c[nH]cn1)NC(=O)[C@H](CO)NC(=O)[C@H](Cc1c[nH]c2ccccc12)NC(=O)[C@H](Cc1c[nH]cn1)NC(=O)[C@@H]1CCC(=O)N1 [Compound 56, pGlu-His-Trp-Ser-His-D-Bhi-Leu-Arg-Pro-NHEt] ([pGlu]HWSH[dHis(τ-Bn)]LRP-NHEt)	> 96	96%	1		
CCNC(=O)[C@@H]1CCCN1C(=O)[C@H](Cc1ccc(O)cc1)NC(=O)[C@H](Cc1c[nH]c2ccccc12)NC(=O)[C@@H](Cc1cn(Cc2ccccc2)cn1)NC(=O)[C@H](Cc1ccc(O)cc1)NC(=O)[C@H](CO)NC(=O)[C@H](Cc1c[nH]c2ccccc12)NC(=O)[C@H](Cc1c[nH]cn1)NC(=O)[C@@H]1CCC(=O)N1 [Compound 62, pGlu-His-Trp-Ser-Tyr-D-Bhi-Trp-Tyr-Pro-NHEt] ([pGlu]HWSY[dHis(τ-Bn)]WYP-NHEt)	< 96	77%	5		
CCNC(=O)[C@@H]1CCCN1C(=O)[C@H](Cc1ccc(O)cc1)NC(=O)[C@H](Cc1c[nH]c2ccccc12)NC(=O)[C@@H](Cc1cn(Cc2ccccc2)cn1)NC(=O)[C@H](Cc1c[nH]cn1)NC(=O)[C@H](CO)NC(=O)[C@H](Cc1c[nH]c2ccccc12)NC(=O)[C@H](Cc1c[nH]cn1)NC(=O)[C@@H]1CCC(=O)N1 [Compound 63, pGlu-His-Trp-Ser-His-D-Bhi-Trp-Tyr-Pro-NHEt] ([pGlu]HWSH[dHis(τ-Bn)]WYP-NHEt)	< 96	77%	5		
NC(=O)CNC(=O)[C@@H]1CCCN1C(=O)[C@H](Cc1ccc(O)cc1)NC(=O)[C@H](Cc1c[nH]c2ccccc12)NC(=O)[C@@H](Cc1c[nH]c2ccccc12)NC(=O)[C@H](Cc1ccc(O)cc1)NC(=O)[C@H](CO)NC(=O)[C@H](Cc1c[nH]c2ccccc12)NC(=O)[C@H](Cc1c[nH]cn1)NC(=O)[C@@H]1CCC(=O)N1 [Compound 64, pGlu-His-Trp-Ser-Tyr-D-Trp-Trp-Tyr-Pro-Gly-amide] ([pGlu]HWSY[dW]WYPG-NH2)	< 96	50%	5		
N=C(N)NCCC[C@H](NC(=O)[C@H](Cc1c[nH]c2ccccc12)NC(=O)[C@@H](Cc1c[nH]c2ccccc12)NC(=O)[C@H](Cc1ccc(O)cc1)NC(=O)[C@H](CO)NC(=O)[C@H](Cc1c[nH]c2ccccc12)NC(=O)[C@H](Cc1c[nH]cn1)NC(=O)[C@@H]1CCC(=O)N1)C(=O)N1CCC[C@H]1C(=O)NCC(N)=O [Compound 66, pGlu-His-Trp-Ser-Tyr-D-Trp-Trp-Arg-Pro-Gly-amide] ([pGlu]HWSY[dW]WRPG-NH2)	> 96	83%	5		
CCNC(=O)[C@@H]1CCCN1C(=O)[C@H](CCCNC(=N)N)NC(=O)[C@H](Cc1c[nH]c2ccccc12)NC(=O)[C@@H](Cc1cn(Cc2ccccc2)cn1)NC(=O)[C@H](Cc1ccc(O)cc1)NC(=O)[C@H](CO)NC(=O)[C@H](Cc1c[nH]c2ccccc12)NC(=O)[C@H](Cc1c[nH]cn1)NC(=O)[C@@H]1CCC(=O)N1 [Compound 67, pGlu-His-Trp-Ser-Tyr-D-Bhi-Trp-Arg-Pro-NHEt] ([pGlu]HWSY[dHis(τ-Bn)]WRP-NHEt)	< 96	117%	1		
CC(C)C[C@H](NC(=O)[C@@H](Cc1c[nH]c2ccccc12)NC(=O)[C@H](Cc1c[nH]cn1)NC(=O)[C@H](CO)NC(=O)[C@H](Cc1c[nH]c2ccccc12)NC(=O)[C@H](Cc1c[nH]cn1)NC(=O)[C@@H]1CCC(=O)N1)C(=O)N[C@@H](CCCNC(=N)N)C(=O)N1CCC[C@H]1C(=O)NCC(N)=O [Compound 68, pGlu-His-Trp-Ser-His-D-Trp-Leu-Arg-Pro-Gly-amide] ([pGlu]HWSH[dW]LRPG-NH2)	> 96	86%	1		
NC(=O)CNC(=O)[C@@H]1CCCN1C(=O)[C@H](Cc1ccc(O)cc1)NC(=O)[C@H](Cc1c[nH]c2ccccc12)NC(=O)CNC(=O)[C@H](Cc1c[nH]cn1)NC(=O)[C@H](CO)NC(=O)[C@H](Cc1c[nH]c2ccccc12)NC(=O)[C@H](Cc1c[nH]cn1)NC(=O)[C@@H]1CCC(=O)N1 [GnRH II] ([pGlu]HWSHGWYPG-NH2)				directly activates these cells	
CCNC(=O)[C@@H]1CCCN1C(=O)[C@H](CCCNC(=N)N)NC(=O)[C@H](CC(C)C)NC(=O)[C@@H](Cc1cn(Cc2ccccc2)cn1)NC(=O)[C@H](Cc1ccc(O)cc1)NC(=O)[C@H](CO)NC(=O)[C@H](Cc1c[nH]c2ccccc12)NC(=O)[C@H](Cc1cnc[nH]1)NC(=O)[C@@H]1CCC(=O)N1 [Histrelin TFA]					2
CCNC(=O)[C@@H]1CCCN1C(=O)[C@H](CCCNC(=N)N)NC(=O)[C@H](CC(C)C)NC(=O)[C@@H](Cc1cn(Cc2ccccc2)cn1)NC(=O)[C@H](Cc1ccc(O)cc1)NC(=O)[C@H](CO)NC(=O)[C@H](Cc1c[nH]c2ccccc12)NC(=O)[C@H](Cc1cnc[nH]1)NC(=O)[C@@H]1CCC(=O)N1 [Histrelin acetate]					4
CCNC(=O)[C@@H]1CCCN1C(=O)[C@H](CCCNC(=N)N)NC(=O)[C@H](CC(C)C)NC(=O)[C@@H](CC(C)C)NC(=O)[C@H](Cc1ccc(O)cc1)NC(=O)[C@H](CO)NC(=O)[C@H](Cc1c[nH]c2ccccc12)NC(=O)[C@H](Cc1c[nH]cn1)NC(=O)[C@@H]1CCC(=O)N1 [Leuprorelin TFA]					1
CCNC(=O)[C@@H]1CCCN1C(=O)[C@H](CCCNC(=N)N)NC(=O)[C@H](CC(C)C)NC(=O)[C@@H](CC(C)C)NC(=O)[C@H](Cc1ccc(O)cc1)NC(=O)[C@H](CO)NC(=O)[C@H](Cc1c[nH]c2ccccc12)NC(=O)[C@H](Cc1c[nH]cn1)NC(=O)[C@@H]1CCC(=O)N1 [Leuprorelin acetate]					2
